Assay results published in patent USRE48461E1, “Modulation of androgen receptor expression” (Ionis Pharmaceuticals, Inc., priority 2012, dated 2021).

Columns and labels:
Type in all cases: cell-based, human
C4-2B cells = assay: C4-2B cell proliferation, ASO in combination with MDV3100 (Example 21); conditions: Homo sapiens, read-out: inhibited proliferation, MDV3100 with control oligonucleotide ISIS 549148
Method: C4-2B cells were plated at 1,000 cells per well. […] ISIS 549148 was included as a negative control. […] After a treatment period of 5 days, the proliferative capacity of the cancer cells was measured with CellTiter 96® AQueous One Solution Cell Proliferation kit (Promega), following the manufacturer's instructions. […]

VCaP cells = assay: VCaP apoptosis (Caspase-Glo 3/7); conditions: complete medium, 72 hours
Method: After a treatment period of 72 hours in complete medium, apoptosis of the cancer cells was measured with Caspase-Glo 3/7 assay (Promega). Results are presented in Tables 117 and 118 as percent apoptosis of the cells, relative to non-treated cells.

AR V7 variant mRNA = assay: AR V7 variant RNA in VCaP cells; conditions: 48 hrs
Method: Cells were plated at 10,000 cells per well. […] ISIS 549148 was included as a negative control. After an incubation period of 48 hrs, RNA levels of full length AR, the V7 variant, PSA and TMPRSS2 were measured.
A separate set of cells was treated with MDV-3100 at 0.04 μM, 0.2 μM, 1.0 μM, or 5.0 μM. After an incubation period of 48 hrs, RNA levels of full length AR, the V7 variant, PSA and TMPRSS2 were measured. The data is presented in Tables 108 expressed as percent expression of gene levels compared to the untreated control.
Cells were plated at 15,000 cells per well and cultured in CSS media for 16 hours. […] ISIS 549148 was included as a negative control. After 4 hrs, 1 nM DHT was added. […] After an incubation period of 48 hrs, RNA levels of AR, PSA and TMPRSS2 were measured. […]

PSA mRNA = assay: PSA expression in 22RV1 cells; conditions: 48 hrs
Method: Cells were plated at 1,000 cells per well. […] After an incubation period of 48 hrs, RNA levels of full length AR, the V7 variant, PSA and TMPRSS2 were measured.
After an incubation period of 48 hrs, RNA levels of full length AR, the V7 variant, PSA and TMPRSS2 were measured.
Cells were plated at 2,000 cells per well and cultured in CSS media for 16 hours. […] After 4 hrs, 1 nM DHT was added. […] After an incubation period of 48 hrs, RNA levels of AR, AR V7 variant, PSA and TMPRSS2 were measured.

[1] = tested on: prostate-specific antigen (PSA) mRNA; assay: Time-course PSA expression in C4-2B cells
Method: C4-2B cells were plated at 1,000 cells per well in complete medium. […] ISIS 549148 was included as a negative control. […] After a treatment period of 8 hours, 24 hours, and 48 hours, AR expression was measured with primer probe set hAR-LTS00943. Results are presented in Tables 70-72 as percent expression of AR, relative to non-treated cells.
Expression analysis of prostate-specific antigen (PSA) and TMPRSS2 were also analyzed. Results are presented in Tables 73-75 as percent inhibition of PSA expression and Tables 76-78 as percent inhibition of TMPRSS2 expression, relative to non-treated cells.

TMPRSS2 mRNA = assay: TMPRSS2 expression in C4-2B cells (Example 30); conditions: 48 hrs
Method: Cells were plated at 1,000 cells per well. […] ISIS 549148 was included as a negative control. […] After an incubation period of 48 hrs, RNA levels of AR, PSA and TMPRSS2 were measured.
Cells were plated at 2,000 cells per well and cultured in CSS media with 1 nM DHT. […] ISIS 549148 was included as a negative control. […] After an incubation period of 48 hrs, RNA levels of AR, PSA and TMPRSS2 were measured. In the absence of DHT, AR expression in C4-2 cells was 188%, PSA expression was 43% and TMPRSS2 expression was 27% compared to the untreated control.

cleaved PARP = assay: Cleaved PARP western blot in VCaP cells
AR mRNA = assay: AR RNA expression in C4-2 cells (complete, CSS+DHT medium); conditions: 48 hrs; for Percent expression of AR / AR expression: C4-2 cells; for Percent expression of AR: CSS + DHT medium
Method: Cells were plated at 1,000 cells per well. […] After an incubation period of 48 hrs, RNA levels of AR, PSA and TMPRSS2 were measured.
Cells were plated at 2,000 cells per well and cultured in CSS media with 1 nM DHT. […] After an incubation period of 48 hrs, RNA levels of AR, PSA and TMPRSS2 were measured.

Structure (SMILES): CNC(=O)c1ccc(N2C(=S)N(c3ccc(C#N)c(C(F)(F)F)c3)C(=O)C2(C)C)cc1F [MDV3100, 4-(3-(4-cyano-3-(trifluoromethyl)phenyl)-5,5-dimethyl-4-oxo-2-thioxoimidazolidin-1-yl)-2-fluoro-N-methylbenzamide, reference compound]
- inhibition at 0.08 µM (C4-2B cells): 0%
- inhibition at 0.4 µM (C4-2B cells): 6%
- Apoptosis (% untreated control) in VCaP cells treated with MDV-3100 (VCaP cells; 5.0 nM): 528%
- Apoptosis (% untreated control) in VCaP cells treated with MDV-3100 (VCaP cells; 0.04 μM): 186%
- Apoptosis (% untreated control) in VCaP cells treated with MDV-3100 (VCaP cells; 0.2 μM): 210%
- Apoptosis (% untreated control) in VCaP cells treated with MDV-3100 (VCaP cells; 1.0 μM): 612%
- apoptosis of VCaP cells (VCaP cells): increased apoptosis of the cells in a dose dependent compared to the control
- Percent of gene expression, AR V7 variant (AR V7 variant mRNA; CSS + DHT medium, 0.04 μM): 82%
- Percent of gene expression, AR V7 variant (AR V7 variant mRNA; CSS + DHT medium, 0.2 μM): 65%
- Percent of gene expression, AR V7 variant (AR V7 variant mRNA; CSS + DHT medium, 1.0 μM): 101%
- Percent of gene expression, AR V7 variant (AR V7 variant mRNA; CSS + DHT medium, 5.0 μM): 181%
- Percent of gene expression, AR V7 variant (AR V7 variant mRNA; complete medium, 0.04 μM): 172%
- Percent of gene expression, AR V7 variant (AR V7 variant mRNA; complete medium, 0.2 μM): 179%
- Percent of gene expression, AR V7 variant (AR V7 variant mRNA; complete medium, 1.0 μM): 244%
- Percent of gene expression, AR V7 variant (AR V7 variant mRNA; complete medium, 5.0 μM): 237%
- Percent of gene expression, PSA (PSA mRNA; CSS + DHT medium, 0.04 μM): 15%
- Percent of gene expression, PSA (PSA mRNA; CSS + DHT medium, 0.2 μM): 19%
- Percent of gene expression, PSA (PSA mRNA; CSS + DHT medium, 1.0 μM): 18%
- Percent of gene expression, PSA (PSA mRNA; CSS + DHT medium, 5.0 μM): 16%
- Percent of gene expression, PSA (PSA mRNA; complete medium, 0.04 μM): 83%
- Percent of gene expression, PSA (PSA mRNA; complete medium, 0.2 μM): 70%
- Percent of gene expression, PSA (PSA mRNA; complete medium, 1.0 μM): 71%
- Percent of gene expression, PSA (PSA mRNA; complete medium, 5.0 μM): 86%
- Percent inhibition of PSA expression compared to the control group in 8 hours ([1]; 0.04 μM): 0%
- Percent inhibition of PSA expression compared to the control group in 24 hours ([1]; 0.04 μM): 24%
- Percent inhibition of PSA expression compared to the control group in 48 hours ([1]; 0.04 μM): 5%
- Percent inhibition of PSA expression compared to the control group in 8 hours ([1]; 0.2 μM): 3%
- Percent inhibition of PSA expression compared to the control group in 24 hours ([1]; 0.2 μM): 24%
- Percent inhibition of PSA expression compared to the control group in 48 hours ([1]; 0.2 μM): 5%
- Percent inhibition of PSA expression compared to the control group in 8 hours ([1]; 1 μM): 23%
- Percent inhibition of PSA expression compared to the control group in 24 hours ([1]; 1 μM): 53%
- Percent inhibition of PSA expression compared to the control group in 48 hours ([1]; 1 μM): 32%
- Percent inhibition of PSA expression compared to the control group in 8 hours ([1]; 5.0 μM): 33%
- Percent inhibition of PSA expression compared to the control group in 24 hours ([1]; 5.0 μM): 65%
- Percent inhibition of PSA expression compared to the control group in 48 hours ([1]; 5.0 μM): 63%
- PSA expression ([1]; time course): also reduced downstream gene expressions but not as potently as that with the ISIS oligonucleotides
- Percent inhibition of TMPRSS2 expression (TMPRSS2 mRNA; CSS + DHT medium, 0.04 μM): 0%
- Percent inhibition of TMPRSS2 expression (TMPRSS2 mRNA; CSS + DHT medium, 0.2 μM): 11%
- Percent inhibition of TMPRSS2 expression (TMPRSS2 mRNA; CSS + DHT medium, 1 μM): 48%
- Percent inhibition of TMPRSS2 expression (TMPRSS2 mRNA; CSS + DHT medium, 5.0 μM): 66%
- Percent inhibition of TMPRSS2 expression (TMPRSS2 mRNA; complete medium, 0.04 μM): 3%
- Percent inhibition of TMPRSS2 expression (TMPRSS2 mRNA; complete medium, 0.2 μM): 24%
- Percent inhibition of TMPRSS2 expression (TMPRSS2 mRNA; complete medium, 1 μM): 55%
- Percent inhibition of TMPRSS2 expression (TMPRSS2 mRNA; complete medium, 5.0 μM): 71%
- cleaved PARP levels (western blot) (cleaved PARP): increased in a dose-dependent manner
- Percent expression of AR (AR mRNA; 0.04 μM): 101%
- Percent expression of AR (AR mRNA; 0.2 μM): 109%
- AR expression (AR mRNA; CSS+DHT medium): increased AR expression in the cells
- AR expression (AR mRNA; complete medium): increased AR expression in the cells
- Percent expression of AR in C4-2 cells cultured in complete medium (AR mRNA; complete medium, 0.04 μM): 95%
- Percent expression of AR in C4-2 cells cultured in complete medium (AR mRNA; complete medium, 0.2 μM): 99%
- Percent expression of AR in C4-2 cells cultured in complete medium (AR mRNA; complete medium, 1 μM): 132%
- Percent expression of AR in C4-2 cells cultured in complete medium (AR mRNA; complete medium, 5.0 μM): 137%
